According to PubChem BioAssay AID248 (DTP/NCI, 2004):
Where “and” joins values, the source holds several entries; their conditions need not be identical. Identical values can stand only once. Inconclusive results and toxic doses are left out.

System: L1210 leukemia ip in BDF1 mice, survival T/C
Assay: NCI In Vivo Anticancer Drug Screen. Data for tumor model L1210 Leukemia (intraperitoneal) in B6D2F1 (BDF1) mice
Conditions: endpoint: mean survival time, higher = longer survival
Summary of the method: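 Survival endpoint. Drug-treated group vs vehicle group, expressed as T divided by C. Tumor passaged by transplantation.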

[1] = dose: 100.0 mg/kg/injection, schedule: Q01DX001 (ip), vehicle: other
[2] = dose: 200.0 mg/kg/injection, schedule: Q01DX001 (ip), vehicle: other
[3] = dose: 400.0 mg/kg/injection, schedule: Q01DX001 (ip), vehicle: other
[4] = dose: 100.0 mg/kg/injection, schedule: Q04DX002 (ip), vehicle: saline with Tween-80
[5] = dose: 200.0 mg/kg/injection, schedule: Q04DX002 (ip), vehicle: saline with Tween-80
[6] = dose: 100.0 mg/kg/injection, schedule: Q01DX001 (ip), vehicle: saline
[7] = dose: 200.0 mg/kg/injection, schedule: Q01DX001 (ip), vehicle: saline
[8] = dose: 400.0 mg/kg/injection, schedule: Q01DX001 (ip), vehicle: saline
[9] = dose: 100.0 mg/kg/injection, schedule: Q01DX009 (ip), vehicle: saline with Tween-80
[10] = dose: 100.0 mg/kg/injection, schedule: Q04DX003 (ip), vehicle: saline with Tween-80
[11] = dose: 75.0 mg/kg/injection, schedule: Q01DX001 (ip), vehicle: saline
[12] = dose: 150.0 mg/kg/injection, schedule: Q01DX001 (ip), vehicle: saline

SMILES: CCCOC(=O)C#CC(=O)OCCC
- T/C (dose: 1.56 mg/kg/injection, schedule: Q01DX001 (ip), vehicle: carboxymethylcellulose (CMC)): 101 % of control
- T/C (dose: 1.56 mg/kg/injection, schedule: Q01DX009 (ip), vehicle: carboxymethylcellulose (CMC)): 93 % of control
- T/C (dose: 1.56 mg/kg/injection, schedule: Q04DX002 (ip), vehicle: carboxymethylcellulose (CMC)): 92 % of control and 98 % of control
- T/C (dose: 1.56 mg/kg/injection, schedule: Q04DX003 (ip), vehicle: carboxymethylcellulose (CMC)): 101 % of control
- T/C (dose: 3.13 mg/kg/injection, schedule: Q01DX001 (ip), vehicle: carboxymethylcellulose (CMC)): 94 % of control
- T/C (dose: 3.13 mg/kg/injection, schedule: Q01DX009 (ip), vehicle: carboxymethylcellulose (CMC)): 92 % of control and 86 % of control
- T/C (dose: 3.13 mg/kg/injection, schedule: Q04DX002 (ip), vehicle: carboxymethylcellulose (CMC)): 92 % of control and 98 % of control
- T/C (dose: 3.13 mg/kg/injection, schedule: Q04DX003 (ip), vehicle: carboxymethylcellulose (CMC)): 98 % of control
- T/C (dose: 6.25 mg/kg/injection, schedule: Q01DX001 (ip), vehicle: carboxymethylcellulose (CMC)): 97 % of control
- T/C (dose: 6.25 mg/kg/injection, schedule: Q01DX009 (ip), vehicle: carboxymethylcellulose (CMC)): 93 % of control and 89 % of control
- T/C (dose: 6.25 mg/kg/injection, schedule: Q04DX002 (ip), vehicle: carboxymethylcellulose (CMC)): 103 % of control and 104 % of control
- T/C (dose: 6.25 mg/kg/injection, schedule: Q04DX003 (ip), vehicle: carboxymethylcellulose (CMC)): 106 % of control

SMILES: S=c1[nH]c(=S)c2[nH]cnc2[nH]1
- T/C (dose: 50.0 mg/kg/injection, schedule: Q01DX001 (ip), vehicle: other): 113 % of control
- T/C (dose: 50.0 mg/kg/injection, schedule: Q01DX009 (ip), vehicle: other): 94 % of control
- T/C [1]: 101 % of control
- T/C (dose: 100.0 mg/kg/injection, schedule: Q01DX009 (ip), vehicle: other): 96 % of control
- T/C [2]: 103 % of control
- T/C (dose: 200.0 mg/kg/injection, schedule: Q01DX009 (ip), vehicle: other): 97 % of control
- T/C [3]: 107 % of control
- T/C (dose: 400.0 mg/kg/injection, schedule: Q01DX009 (ip), vehicle: other): 102 % of control
- T/C (dose: 600.0 mg/kg/injection, schedule: Q01DX001 (ip), vehicle: other): 100 % of control
- T/C (dose: 1200.0 mg/kg/injection, schedule: Q01DX001 (ip), vehicle: other): 117 % of control

SMILES: COc1ccc(N=C2OC(=O)c3ccccc32)cc1
- T/C (dose: 100.0 mg/kg/injection, schedule: Q01DX009 (ip), vehicle: saline): 91 % of control
- T/C (dose: 100.0 mg/kg/injection, schedule: Q04DX003 (ip), vehicle: saline): 94 % of control
- T/C (dose: 200.0 mg/kg/injection, schedule: Q01DX009 (ip), vehicle: saline): 100 % of control
- T/C (dose: 200.0 mg/kg/injection, schedule: Q04DX003 (ip), vehicle: saline): 103 % of control
- T/C (dose: 400.0 mg/kg/injection, schedule: Q01DX009 (ip), vehicle: saline): 89 % of control
- T/C (dose: 400.0 mg/kg/injection, schedule: Q04DX003 (ip), vehicle: saline): 92 % of control

SMILES: NC(N)=NCC(CCN1CCCCC1)c1cccc2ccccc12 (stereo unspecified)
- T/C (dose: 5.0 mg/kg/injection, schedule: Q01DX009 (ip), vehicle: saline): 105 % of control
- T/C (dose: 10.0 mg/kg/injection, schedule: Q01DX009 (ip), vehicle: saline): 100 % of control
- T/C (dose: 12.5 mg/kg/injection, schedule: Q04DX002 (ip), vehicle: saline): 93 % of control
- T/C (dose: 20.0 mg/kg/injection, schedule: Q01DX009 (ip), vehicle: saline): 106 % of control
- T/C (dose: 25.0 mg/kg/injection, schedule: Q04DX002 (ip), vehicle: saline): 93 % of control

SMILES: COC1OC(CO)C(OS(=O)(=O)c2ccc(C)cc2)C(C(=O)Oc2ccccc2)C1OC(=O)c1ccccc1 (stereo unspecified)
- T/C (dose: 50.0 mg/kg/injection, schedule: Q04DX002 (ip), vehicle: saline with Tween-80): 93 % of control
- T/C [4]: 104 % of control
- T/C [5]: 90 % of control

SMILES: O=C(Nc1ccc(C2=NCCN2)cc1)c1cncc(C(=O)Nc2ccc(C3=NCCN3)cc2)c1
- T/C (dose: 1.0 mg/kg/injection, schedule: Q01DX Z (ip), vehicle: saline): 97 % of control
- T/C (dose: 2.0 mg/kg/injection, schedule: Q01DX Z (ip), vehicle: saline): 111 % of control
- T/C (dose: 15.0 mg/kg/injection, schedule: Q01DX Z (ip), vehicle: carboxymethylcellulose (CMC)): 223 % of control
- T/C (dose: 16.0 mg/kg/injection, schedule: Q01DX Z (ip), vehicle: saline): 214 % of control
- T/C (dose: 30.0 mg/kg/injection, schedule: Q01DX Z (ip), vehicle: carboxymethylcellulose (CMC)): 158 % of control
- T/C (dose: 30.0 mg/kg/injection, schedule: Q01DX Z (oral), vehicle: saline): 101 % of control
- T/C (dose: 60.0 mg/kg/injection, schedule: Q01DX Z (ip), vehicle: carboxymethylcellulose (CMC)): 120 % of control
- T/C (dose: 60.0 mg/kg/injection, schedule: Q01DX Z (oral), vehicle: saline): 104 % of control
- T/C (dose: 120.0 mg/kg/injection, schedule: Q01DX Z (oral), vehicle: saline): 98 % of control
- T/C (dose: 240.0 mg/kg/injection, schedule: Q01DX Z (oral), vehicle: saline): 106 % of control
- T/C (dose: 480.0 mg/kg/injection, schedule: Q01DX Z (oral), vehicle: saline): 101 % of control
- T/C (dose: 960.0 mg/kg/injection, schedule: Q01DX Z (oral), vehicle: saline): 101 % of control

SMILES: CCOC(=O)C(C(=O)OCC)c1ccc(Cl)cc1
- T/C (dose: 50.0 mg/kg/injection, schedule: Q01DX001 (ip), vehicle: saline): 101 % of control
- T/C [6]: 101 % of control
- T/C [7]: 101 % of control
- T/C [8]: 106 % of control

SMILES: CCOC(=O)NC1CC1
- T/C [6]: 93 % of control
- T/C [7]: 95 % of control
- T/C [8]: 101 % of control

SMILES: CCCS(=O)(=O)N1CC(C)OC(C)C1 (stereo unspecified)
- T/C (dose: 100.0 mg/kg/injection, schedule: Q04DX002 (ip), vehicle: Klucel (hydroxypropylcellulose) (HPC)): 91 % of control
- T/C (dose: 200.0 mg/kg/injection, schedule: Q04DX002 (ip), vehicle: Klucel (hydroxypropylcellulose) (HPC)): 91 % of control
- T/C (dose: 400.0 mg/kg/injection, schedule: Q04DX002 (ip), vehicle: Klucel (hydroxypropylcellulose) (HPC)): 89 % of control

SMILES: CCC1(C)n2c(=O)c3ccccc3c(=O)n21
- T/C [4]: 97 % of control
- T/C [5]: 101 % of control
- T/C (dose: 400.0 mg/kg/injection, schedule: Q04DX002 (ip), vehicle: saline with Tween-80): 90 % of control

SMILES: Cc1ccc(S(=O)(=O)Oc2ccc3ccccc3c2)cc1
- T/C [9]: 88 % of control
- T/C [10]: 98 % of control
- T/C (dose: 200.0 mg/kg/injection, schedule: Q04DX003 (ip), vehicle: saline with Tween-80): 86 % of control
- T/C (dose: 400.0 mg/kg/injection, schedule: Q04DX003 (ip), vehicle: saline with Tween-80): 86 % of control

SMILES: O=C1CCN2CCCc3cccc1c32
- T/C [1]: 100 % of control
- T/C [2]: 97 % of control
- T/C [3]: 102 % of control

SMILES: CCCCCNCCO
- T/C [11]: 105 % of control
- T/C [12]: 105 % of control
- T/C (dose: 300.0 mg/kg/injection, schedule: Q01DX001 (ip), vehicle: saline): 109 % of control

SMILES: CCCCCCCCCCC(=O)O
- T/C (dose: 100.0 mg/kg/injection, schedule: Q01DX001 (ip), vehicle: Klucel (hydroxypropylcellulose) (HPC)): 105 % of control
- T/C (dose: 200.0 mg/kg/injection, schedule: Q01DX001 (ip), vehicle: Klucel (hydroxypropylcellulose) (HPC)): 105 % of control
- T/C (dose: 300.0 mg/kg/injection, schedule: Q01DX001 (ip), vehicle: Klucel (hydroxypropylcellulose) (HPC)): 101 % of control

SMILES: [Co+2].[NH-]c1ccccc1C(=O)O.[NH-]c1ccccc1C(=O)O
- T/C [9]: 94 % of control
- T/C (dose: 200.0 mg/kg/injection, schedule: Q01DX009 (ip), vehicle: saline with Tween-80): 93 % of control
- T/C (dose: 400.0 mg/kg/injection, schedule: Q01DX009 (ip), vehicle: saline with Tween-80): 86 % of control

SMILES: Cc1ccc([N+](=O)[O-])c(P(=O)(O)O)c1
- T/C [10]: 100 % of control

SMILES: Cc1ncc(C(N)=O)c(C)n1
- T/C [6]: 95 % of control
- T/C [7]: 101 % of control
- T/C [8]: 101 % of control

SMILES: COC(=O)c1ccc(OC(=O)Nc2ccc([N+](=O)[O-])cc2OC)cc1
- T/C (dose: 25.0 mg/kg/injection, schedule: Q01DX009 (ip), vehicle: Klucel (hydroxypropylcellulose) (HPC)): 96 % of control
- T/C (dose: 50.0 mg/kg/injection, schedule: Q01DX009 (ip), vehicle: Klucel (hydroxypropylcellulose) (HPC)): 101 % of control
- T/C (dose: 100.0 mg/kg/injection, schedule: Q01DX009 (ip), vehicle: Klucel (hydroxypropylcellulose) (HPC)): 93 % of control and 100 % of control

SMILES: C=C(C)C1(CCCCC)C(=O)NC(=O)NC1=O
- T/C [11]: 101 % of control
- T/C [12]: 98 % of control
